Square brackets hold non-standard residues; d marks the D form. Peptide text beside a SMILES is read from it. N(isopentyl)Gly = CC(C)CCNCC(=O)O; Nspe = C[C@H](NCC(=O)O)c1ccccc1; NhArg = N=C(N)NCCCCNCC(=O)O; Nlys = NCCCCNCC(=O)O
Legend:
[1] = system: Escherichia coli K-12 wild-type strain (W3110/ATCC27325); assay type: cell-based; conditions: lowest concentration completely inhibiting growth, 37 °C, 16 h; range 2–100 μM
Protocol: (§1) Escherichia coli K-12 wild-type strain (W3110/ATCC27325, F^–, λ^–, rpoS(Am), rph-1, Inv(rrnD-rrnE)), Pseudomonas aeruginosa PA01 (ATCC 15692) Staphylococcus aureus (3R7089 strain Oxford/ATCC9144) and Staphylococcus epidermidis (laboratory strain from clinical isolate) were selected for bacteriological studies as representative Gram-negative (E. coli and P. aeruginosa) and Gram-positive (S. aureus and S. epidermidis) species. Bacterial cultures were prepared by streaking bacterial strains onto LB agar plates with an inoculation loop and incubated overnight at 37 °C. A single colony was selected and placed in 5 mL of Iso-sensitest broth (Oxoid, ThermoScientific) and incubated with shaking for 16–18 h at 37 °C to provide liquid cultures for testing.
(§2) MIC values were obtained according to the protocol described by J. M. Andrews et al.[58] and were conducted in 96-well plates (Sarstedt). Bacteria were grown from overnight cultures in Iso-sensitest broth to an A650nm of 0.07 equivalent to a 0.5 MacFarland standard (240 μM BaCl2 in 0.18 M H2SO4). This culture was diluted ten-fold with Iso-sensitest broth before use. Peptoids were initially dissolved in DMSO (5 mM) and diluted further in Iso-sensitest broth to achieve a concentration range of 4–200 μM using 2-fold serial dilutions. 50 μl of inoculum and 50 μl of peptoid solution were added to each test well (final concentration range of 2–100 μM). Experiments were performed in triplicate. A positive control for bacterial growth contained only the inoculum and Iso-sensitest broth. Other controls contained the inoculum and serial dilutions of ampicillin (from 250 μg mL^–1 to 2 μg mL^–1), serial dilutions of DMSO and the inoculum to confirm no inhibitory effect on bacterial growth, and Iso-sensitest broth alone as a sterile control. […] Quantitative data was attained from absorbance values using a Biotek Synergy H4 plate reader.
(§3) Antibacterial MIC determination
as §1, with “(W3110 / ATCC27325, F-, λ-,” for “(W3110/ATCC27325, F^–, λ^–,”, “Oxford / ATCC9144)” for “Oxford/ATCC9144)”, “°C.” for “°C. A single colony was selected and placed in 5 mL of Iso-sensitest broth (Oxoid, ThermoScientific) and incubated with shaking for 16–18 h at 37 °C to provide liquid cultures for testing.”
(§4) A single colony was selected and placed in 5 mL of Iso-sensitest broth (Oxoid, ThermoScientific) and incubated with shaking for 16-18 h at 37 °C to provide liquid […]
(§5) MIC values were obtained according to the protocol described by J. M. Andrews et al.1 and were conducted in 96-well plates (Sarstedt). Bacteria were grown from overnight cultures in Iso-sensitest broth to an A650nm of 0.07 equivalent to a 0.5 MacFarland standard (240 μM BaCl2 in 0.18 M H2SO4). This culture was diluted ten-fold with Iso-sensitest broth before use. Peptoids were initially dissolved in DMSO (5 mM) and diluted further in Iso-sensitest broth to achieve a concentration range of 4 – 200 µM using 2-fold serial dilutions. 50 μl of inoculum and 50 μl of peptoid solution were added to each test well (final concentration range of 2 – 100 µM). Experiments were performed in triplicate. A positive control for bacterial growth contained only the inoculum and Iso-sensitest broth. Other controls contained the inoculum and serial dilutions of ampicillin (from 250 µg/mL to 2 µg/mL), serial dilutions of DMSO and the inoculum to confirm no inhibitory effect on bacterial growth, and Iso-sensitest broth alone as a sterile control. […]
(§6) growth after incubation at 37 °C for 16 h with shaking. Quantitative data was attained from absorbance values using a Biotek Synergy H4 plate reader.

[2] = system: Pseudomonas aeruginosa PA01 (ATCC 15692); assay type: cell-based; conditions: lowest concentration completely inhibiting growth, 37 °C, 16 h; range 2–100 μM
Protocol: as §1, §2, §3
as §1, with “(W3110 / ATCC27325, F-, λ-,” for “(W3110/ATCC27325, F^–, λ^–,”, “Oxford / ATCC9144)” for “Oxford/ATCC9144)”, “°C.” for “°C. A single colony was selected and placed in 5 mL of Iso-sensitest broth (Oxoid, ThermoScientific) and incubated with shaking for 16–18 h at 37 °C to provide liquid cultures for testing.”
as §4, §5, §6

[3] = system: Staphylococcus aureus (3R7089 strain Oxford/ATCC9144); assay type: cell-based; conditions: lowest concentration completely inhibiting growth, 37 °C, 16 h; range 2–100 μM
Protocol: as §1, §2, §3
as §1, with “(W3110 / ATCC27325, F-, λ-,” for “(W3110/ATCC27325, F^–, λ^–,”, “Oxford / ATCC9144)” for “Oxford/ATCC9144)”, “°C.” for “°C. A single colony was selected and placed in 5 mL of Iso-sensitest broth (Oxoid, ThermoScientific) and incubated with shaking for 16–18 h at 37 °C to provide liquid cultures for testing.”
as §4, §5, §6

[4] = system: Staphylococcus epidermidis (laboratory strain from clinical isolate); assay type: cell-based; conditions: lowest concentration completely inhibiting growth, 37 °C, 16 h; range 2–100 μM
Protocol: as §1, §2, §3
as §1, with “(W3110 / ATCC27325, F-, λ-,” for “(W3110/ATCC27325, F^–, λ^–,”, “Oxford / ATCC9144)” for “Oxford/ATCC9144)”, “°C.” for “°C. A single colony was selected and placed in 5 mL of Iso-sensitest broth (Oxoid, ThermoScientific) and incubated with shaking for 16–18 h at 37 °C to provide liquid cultures for testing.”
as §4, §5, §6

[5] = Skin cell toxicity assay with HaCaT (alamarBlue); assay type: cell-based, human; conditions: human, HaCaT cells (keratinocytes), ED50 HaCaT
Protocol: The activity of our peptoid library was assessed against both bacterial and mammalian cells to gain a broader understanding of the factors that lead to effective and selective antimicrobial peptoids. We screened for broad-spectrum antibacterial activity against Gram-negative (Escherichia coli and Pseudomonas aeruginosa) and Gram-positive (Staphylococcus aureus and S. epidermidis) bacteria. The toxicity of the library was also assessed against two mammalian cell lines; HaCaT spontaneously transformed aneuploid keratinocytes were employed to model toxicity against human skin cells and HepG2, a cell line derived from a human liver carcinoma, were used as a study on polarised human hepatocytes. Detailed methods for these assays can be found in the ESI. ^‡ […]
Please note – ED50, the median effective dose, was defined as the dose that kills 50% of cells.
Cytotoxicity analyses were performed in 96-well plates (Costar, Fisher Scientific) using alamarBlue® (Invitrogen) for cell viability detection using a modified protocol as described previously. HepG2 or HaCaT cells were subcultured at 37 °C, 5% CO2 in DMEM high glucose supplemented with heat-inactivated foetal bovine sera (FBS, 10%; Biosera Ltd) and penicillin/streptomycin (P/S, 1%). Cells were counted using a Neubauer Improved Haemocytometer. HepG2 cells were seeded 1 day prior to treatment in 96 well plates at a concentration of 2 × 10^5 cells per mL in 100 μL of medium (2 × 10^4 cells per well). Then cells were pre-incubated with the compounds in triplicate in a dilution series in triplicate from 2–100 μM (5 mM stock solutions in DMSO diluted from 100 μM to 3 μM; untreated cells with DMSO as a negative control) in 50 μl of the media for 1 hour. Afterwards, 40 μL were removed from each well before the addition of 90 μL of the media, followed by incubation for 24 hours at 37 °C, 5% CO2. Then, 10 μL of alamarBlue® (Invitrogen) was added to each well before a 2 hour incubation prior to assessing cell viability using a fluorescent plate reader (Biotek; Ex 560 nm/Em 600 nm). All data were measured in triplicate on a minimum of two occasions to ensure a robust data set was collected. The ED50 values were calculated from the dose response results achieved from the serial dilutions. […]
Cells were counted using a Neubauer Improved
Haemocytometer. […]
µM to 3 µM; untreated cells with DMSO as a negative control) in 50 µl of the media for 1 hour.
Afterwards, 40 µL were removed from each well before the addition of 90 µL of the media, followed by incubation for 24 hours at 37 °C, 5% CO2. Then, 10 µL of alamarBlue® (Invitrogen) was added to each well before a 2 hour incubation prior to assessing cell viability using a fluorescent plate reader (Biotek; Ex 560 nm / Em 600 nm). All data was measured in triplicate on a minimum of two occasions to ensure a robust data set was collected. The ED50 values were calculated from the dose response results achieved from the serial dilutions.
Skin Cell Toxicity assay with HaCaT […]
alamarBlue® (Invitrogen) for cell viability detection. HaCaT cells were subcultured at 37 °C, 5% CO2 in DMEM high glucose supplemented with heat-inactivated foetal bovine sera (FBS, 10%; Biosera Ltd) and penicillin/streptomycin (P/S, 1%). Cells were counted using a Neubauer Improved Haemocytometer. HaCaT cells were seeded in the plates 24 hours prior to treatment in 96 well plates at a concentration of 2x10^5 cells/mL in 100 µL of medium (2x10^4 cells/well).
Empty wells were filled with 100 µL PBS. After 24 hours, cells were incubated with the compounds in a dilution series in triplicate from 2 – 100 µM (5 mM stock solutions in DMSO diluted from 100 µM to 3 µM; Amphotericin B was used as a positive control and untreated cells with DMSO as a negative control) in 50 µL of the media for 1 hour. Afterwards, 40 µl was removed from each well, 90 µL of medium was added to each well and the cells incubated for 24 hours at 37 °C, 5% CO2. 10 µL of alamarBlue® (Invitrogen) was added to each well before […]

SMILES | MIC E. coli [1] | MIC P. aeruginosa [2] | MIC S. aureus [3] | MIC S. epidermidis [4] | CC50 at 24 h [5]
C[C@@H](c1ccccc1)N(CC(N)=O)C(=O)CN(C(=O)CN(CCCCNC(=N)N)C(=O)CN(C(=O)CN(C(=O)CN(CCCCNC(=N)N)C(=O)CN(C(=O)CN(C(=O)CNCCCCNC(=N)N)[C@@H](C)c1ccccc1)[C@@H](C)c1ccccc1)[C@@H](C)c1ccccc1)[C@@H](C)c1ccccc1)[C@@H](C)c1ccccc1 [Peptoid 35, (NhArgNspeNspe)3] (H-[NhArg][Nspe][Nspe][NhArg][Nspe][Nspe][NhArg][Nspe][Nspe]-NH2; N-terminus assumed) | 6 µM | 50 µM | 2 µM | 2 µM | 
N=C(N)NCCCCNCC(=O)N(CC(=O)N(CC(=O)N(CCCCNC(=N)N)CC(=O)N(CC(=O)N(CC(=O)N(CCCCNC(=N)N)CC(=O)N(CC(=O)N(CC(N)=O)Cc1cccc(F)c1)Cc1cccc(F)c1)Cc1cccc(F)c1)Cc1cccc(F)c1)Cc1cccc(F)c1)Cc1cccc(F)c1 [Peptoid 37, (NhArgNmfbNmfb)3] | 6 µM | 25 µM | 2 µM | 1 µM | 
CC(C)CCN(CC(=O)N(CC(N)=O)[C@@H](C)c1ccccc1)C(=O)CN(CCCCNC(=N)N)C(=O)CN(C(=O)CN(CCC(C)C)C(=O)CN(CCCCNC(=N)N)C(=O)CN(C(=O)CN(CCC(C)C)C(=O)CN(CCCCNC(=N)N)C(=O)CN(C(=O)CN(CCC(C)C)C(=O)CNCCCCNC(=N)N)[C@@H](C)c1ccccc1)[C@@H](C)c1ccccc1)[C@@H](C)c1ccccc1 [Peptoid 38, (NhArgNhLeuNspe)4] (H-[NhArg][N(isopentyl)Gly][Nspe][NhArg][N(isopentyl)Gly][Nspe][NhArg][N(isopentyl)Gly][Nspe][NhArg][N(isopentyl)Gly][Nspe]-NH2; N-terminus assumed) | 13 µM | 25 µM | 1 µM | 2 µM | 
CC(C)CCN(CC(=O)N(CC(N)=O)[C@@H](C)c1ccccc1)C(=O)CN(CCCCNC(=N)N)C(=O)CN(C(=O)CN(CCC(C)C)C(=O)CN(CCCCNC(=N)N)C(=O)CN(C(=O)CN(CCC(C)C)C(=O)CNCCCCNC(=N)N)[C@@H](C)c1ccccc1)[C@@H](C)c1ccccc1 [Peptoid 39, (NhArgNhLeuNspe)3] (H-[NhArg][N(isopentyl)Gly][Nspe][NhArg][N(isopentyl)Gly][Nspe][NhArg][N(isopentyl)Gly][Nspe]-NH2; N-terminus assumed) |  | 100 µM | 3 µM | 2 µM | 
C[C@@H](c1ccccc1)N(CC(N)=O)C(=O)CN(C(=O)CN(CCCCN)C(=O)CN(C(=O)CN(C(=O)CN(CCCCN)C(=O)CN(C(=O)CN(C(=O)CN(CCCCNC(=N)N)C(=O)CN(C(=O)CN(C(=O)CNCCCCNC(=N)N)[C@@H](C)c1ccccc1)[C@@H](C)c1ccccc1)[C@@H](C)c1ccccc1)[C@@H](C)c1ccccc1)[C@@H](C)c1ccccc1)[C@@H](C)c1ccccc1)[C@@H](C)c1ccccc1 [Peptoid 42, (NhArgNspeNspe)2(NLysNspeNspe)2] (H-[NhArg][Nspe][Nspe][NhArg][Nspe][Nspe][Nlys][Nspe][Nspe][Nlys][Nspe][Nspe]-NH2) | 17 µM | 17 µM | 17 µM |  | 15 µM
C[C@@H](c1ccccc1)N(CC(N)=O)C(=O)CN(C(=O)CN(CCCCN)C(=O)CN(C(=O)CN(C(=O)CN(CCCCN)C(=O)CN(C(=O)CN(C(=O)CN(CCCCNC(=N)N)C(=O)CN(C(=O)CN(C(=O)CNCCCCN)[C@@H](C)c1ccccc1)[C@@H](C)c1ccccc1)[C@@H](C)c1ccccc1)[C@@H](C)c1ccccc1)[C@@H](C)c1ccccc1)[C@@H](C)c1ccccc1)[C@@H](C)c1ccccc1 [Peptoid 43, (NLysNspeNspe)(NhArgNspeNspe)(NLysNspeNspe)2] (H-[Nlys][Nspe][Nspe][NhArg][Nspe][Nspe][Nlys][Nspe][Nspe][Nlys][Nspe][Nspe]-NH2) | 17 µM | 17 µM | 17 µM |  | 33 µM
C[C@@H](c1ccccc1)N(CC(N)=O)C(=O)CN(C(=O)CN(CCCCN)C(=O)CN(C(=O)CN(C(=O)CN(CCCCNC(=N)N)C(=O)CN(C(=O)CN(C(=O)CN(CCCCN)C(=O)CN(C(=O)CN(C(=O)CNCCCCNC(=N)N)[C@@H](C)c1ccccc1)[C@@H](C)c1ccccc1)[C@@H](C)c1ccccc1)[C@@H](C)c1ccccc1)[C@@H](C)c1ccccc1)[C@@H](C)c1ccccc1)[C@@H](C)c1ccccc1 [Peptoid 44, [(NhArgNspeNspe)(NLysNspeNspe)]2] (H-[NhArg][Nspe][Nspe][Nlys][Nspe][Nspe][NhArg][Nspe][Nspe][Nlys][Nspe][Nspe]-NH2) | 17 µM | 67 µM | 17 µM |  | 33 µM

Source: PMC6072100, “Exploring the links between peptoid antibacterial activity and toxicity” (MedChemComm, 2017)
